Active and inactive are the calls of the source. Rule as the data show it, for most assays here: actives have a measured IC50 and inactives only a lower limit.
What was measured:
Type in all cases: functional
[1] = target: T1, Sentrin-specific protease 8 (Homo sapiens, UniProt Q96LD8);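 also: luminescence read-out of SENP8 inhibition, dose-response confirmation following an ultra-high-throughput screen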
T1 sequence (Q96LD8 whole entry): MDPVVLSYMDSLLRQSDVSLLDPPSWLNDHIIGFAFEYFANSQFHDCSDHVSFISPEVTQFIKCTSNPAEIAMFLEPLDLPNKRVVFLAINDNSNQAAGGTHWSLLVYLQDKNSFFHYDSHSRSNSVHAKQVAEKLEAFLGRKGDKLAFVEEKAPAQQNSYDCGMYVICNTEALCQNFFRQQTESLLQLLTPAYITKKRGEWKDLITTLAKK

[2] = target: T2, Sentrin-specific protease 7 (Homo sapiens, UniProt Q9BQF6);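 also: Luminescence-based dose-response confirmation of ultra-high-throughput screening hits, measuring inhibition of SENP7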
T2 sequence (Q9BQF6 whole entry): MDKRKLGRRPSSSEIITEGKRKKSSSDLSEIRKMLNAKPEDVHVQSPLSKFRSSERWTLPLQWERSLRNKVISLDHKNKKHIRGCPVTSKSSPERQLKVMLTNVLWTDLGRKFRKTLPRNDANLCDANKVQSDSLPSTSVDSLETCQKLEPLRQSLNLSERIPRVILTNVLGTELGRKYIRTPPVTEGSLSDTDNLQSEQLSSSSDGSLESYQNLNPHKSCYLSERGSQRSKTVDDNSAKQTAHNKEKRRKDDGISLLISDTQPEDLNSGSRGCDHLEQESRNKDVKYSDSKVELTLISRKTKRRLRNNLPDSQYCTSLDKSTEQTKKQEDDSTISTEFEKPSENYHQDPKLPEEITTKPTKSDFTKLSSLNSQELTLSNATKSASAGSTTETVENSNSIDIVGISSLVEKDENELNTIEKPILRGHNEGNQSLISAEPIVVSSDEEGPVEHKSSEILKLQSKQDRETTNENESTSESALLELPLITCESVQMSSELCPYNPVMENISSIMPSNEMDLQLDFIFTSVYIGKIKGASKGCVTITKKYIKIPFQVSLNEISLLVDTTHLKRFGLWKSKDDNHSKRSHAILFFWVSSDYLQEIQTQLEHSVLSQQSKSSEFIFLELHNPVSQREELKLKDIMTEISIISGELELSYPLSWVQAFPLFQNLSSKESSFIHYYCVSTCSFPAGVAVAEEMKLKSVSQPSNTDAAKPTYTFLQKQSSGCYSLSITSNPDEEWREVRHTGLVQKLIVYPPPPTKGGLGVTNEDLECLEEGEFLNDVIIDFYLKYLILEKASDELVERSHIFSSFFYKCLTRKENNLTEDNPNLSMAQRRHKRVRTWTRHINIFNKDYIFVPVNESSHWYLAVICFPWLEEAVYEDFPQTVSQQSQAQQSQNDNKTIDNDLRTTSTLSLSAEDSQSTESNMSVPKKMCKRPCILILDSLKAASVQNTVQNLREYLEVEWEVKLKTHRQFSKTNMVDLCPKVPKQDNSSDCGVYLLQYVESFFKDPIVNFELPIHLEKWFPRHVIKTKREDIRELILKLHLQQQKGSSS

[3] = target: T3, Sentrin-specific protease 6 (Homo sapiens, UniProt Q9GZR1);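 also: Luminescence-based dose-response confirmatory assay of SENP6 inhibition, following up an ultra-high-throughput screen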
T3 sequence (Q9GZR1 whole entry): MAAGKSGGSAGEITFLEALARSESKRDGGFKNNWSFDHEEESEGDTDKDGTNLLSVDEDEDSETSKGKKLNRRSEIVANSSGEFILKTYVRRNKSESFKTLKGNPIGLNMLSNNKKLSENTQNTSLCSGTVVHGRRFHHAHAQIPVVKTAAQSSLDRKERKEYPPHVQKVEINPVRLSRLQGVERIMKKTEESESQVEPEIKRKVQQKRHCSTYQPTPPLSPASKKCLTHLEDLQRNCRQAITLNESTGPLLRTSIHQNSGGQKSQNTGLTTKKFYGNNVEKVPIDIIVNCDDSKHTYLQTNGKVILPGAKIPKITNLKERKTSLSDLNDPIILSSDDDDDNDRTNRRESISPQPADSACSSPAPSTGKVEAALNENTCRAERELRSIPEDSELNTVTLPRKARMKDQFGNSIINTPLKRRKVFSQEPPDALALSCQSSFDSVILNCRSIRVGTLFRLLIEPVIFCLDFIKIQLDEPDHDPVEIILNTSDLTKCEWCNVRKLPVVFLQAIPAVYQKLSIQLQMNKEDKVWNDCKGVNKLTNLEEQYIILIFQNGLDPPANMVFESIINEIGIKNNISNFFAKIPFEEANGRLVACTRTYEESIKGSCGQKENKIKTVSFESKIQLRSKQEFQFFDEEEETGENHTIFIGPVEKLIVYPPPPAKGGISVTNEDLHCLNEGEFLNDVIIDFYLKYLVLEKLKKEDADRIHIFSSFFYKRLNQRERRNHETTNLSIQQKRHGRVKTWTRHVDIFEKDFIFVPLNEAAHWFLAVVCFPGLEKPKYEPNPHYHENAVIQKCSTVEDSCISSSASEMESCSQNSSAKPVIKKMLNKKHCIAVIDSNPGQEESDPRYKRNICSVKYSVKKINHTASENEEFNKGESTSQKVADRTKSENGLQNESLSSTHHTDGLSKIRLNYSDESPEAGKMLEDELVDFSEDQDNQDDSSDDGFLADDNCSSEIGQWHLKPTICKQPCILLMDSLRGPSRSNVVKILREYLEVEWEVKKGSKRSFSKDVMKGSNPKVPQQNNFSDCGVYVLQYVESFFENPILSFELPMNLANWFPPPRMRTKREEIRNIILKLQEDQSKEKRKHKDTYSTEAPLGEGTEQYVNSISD

[4] = target: T4, High affinity choline transporter 1 (Homo sapiens, UniProt Q9GZV3); test: CHT inhibitors, dose response, cell-based, 5-point CRC, membrane potential dye (AID 504840)
T4 sequence (Q9GZV3 whole entry): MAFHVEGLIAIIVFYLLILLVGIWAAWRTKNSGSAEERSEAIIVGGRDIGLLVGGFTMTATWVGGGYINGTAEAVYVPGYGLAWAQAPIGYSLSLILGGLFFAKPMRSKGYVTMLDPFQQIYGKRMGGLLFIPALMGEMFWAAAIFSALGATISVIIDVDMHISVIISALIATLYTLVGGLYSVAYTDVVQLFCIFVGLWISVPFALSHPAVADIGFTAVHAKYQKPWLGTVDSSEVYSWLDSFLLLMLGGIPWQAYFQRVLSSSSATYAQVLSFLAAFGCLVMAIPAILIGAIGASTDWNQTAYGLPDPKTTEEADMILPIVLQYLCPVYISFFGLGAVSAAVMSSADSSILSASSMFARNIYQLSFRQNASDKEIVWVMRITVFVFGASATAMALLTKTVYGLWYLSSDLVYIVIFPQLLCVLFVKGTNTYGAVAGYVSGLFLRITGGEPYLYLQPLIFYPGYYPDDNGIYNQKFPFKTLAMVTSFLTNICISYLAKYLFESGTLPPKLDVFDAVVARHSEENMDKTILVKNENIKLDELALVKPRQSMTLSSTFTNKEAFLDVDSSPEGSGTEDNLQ

[5] = target: T5, Caspase-3 (Homo sapiens, UniProt P42574);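 also: Dose-response selectivity test against caspase-3 for candidate inhibitors of sentrin-specific proteases (SENPs)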
T5 sequence (P42574 whole entry): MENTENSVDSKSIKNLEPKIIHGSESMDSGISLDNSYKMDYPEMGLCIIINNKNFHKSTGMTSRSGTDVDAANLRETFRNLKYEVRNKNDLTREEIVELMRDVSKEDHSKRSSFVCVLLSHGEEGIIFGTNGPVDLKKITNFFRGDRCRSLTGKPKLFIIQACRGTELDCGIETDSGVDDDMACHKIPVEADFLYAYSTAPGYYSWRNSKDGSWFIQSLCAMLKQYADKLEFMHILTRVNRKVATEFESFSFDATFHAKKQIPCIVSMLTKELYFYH

[6] = target: T4, High affinity choline transporter 1; test: CHT inhibitors, dose response, cell-based, 10-point CRC, membrane potential dye (AID 588401);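 also: membrane potential dye fluorescence of choline-evoked depolarization via CHT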

Measured: IC50

Cn1c(SCc2ccc(C#N)cc2Cl)nc2ccccc21
active: [1] 14.8 µM | [2] 4.57 µM | [3] 10.8 µM | [4] 3.99 µM | [5] 8.4 µM | [6] 3.4 µM
